Earlier results in patent US7261867B1 (Eastman Kodak Company, priority 2006, dated 2007).

Columns and labels:
Settings in all cases: 0.5% concentration in polymethylmethacrylate bone cement
[1] = tested on: Staphylococcus aureus
[2] = tested on: Pseudomonas aeruginosa
[3] = tested on: Escherichia coli

Measured: inhibition of bacterial growth

[Cl][Ag] [Silver chloride]
significantly inhibit: all assays above

O=S(=O)([O-])[O-].[Ag+].[Ag+] [silver sulphate]
significantly inhibit: all assays above

silver oxide
significantly inhibit: all assays above
